Source: ChEMBL document CHEMBL3867467, “Discovery of indazole ethers as novel, potent, non-steroidal glucocorticoid receptor modulators” (Bioorg Med Chem Lett, 2016)

Legend:
in vivo [1] = settings: Wistar, rat, iv, 1 umol/kg
Description: Clearance in Wistar rat at 1 umol/kg, iv through bolus administration by LC/MS/MS analysis

in vivo [2] = settings: Wistar, rat, iv, 1 umol/kg; remark: listed apart in the source
Description: Volume of distribution at steady state in Wistar rat at 1 umol/kg, iv through bolus administration by LC/MS/MS analysis

in vivo [3] = settings: Wistar, rat, iv, 1 umol/kg; remark: listed apart in the source
in vivo [4] = settings: Wistar, rat, po, 10 umol/kg
in vivo [5] = settings: Wistar, rat, po, 10 umol/kg; remark: listed apart in the source
in vivo [6] = settings: Lewis, rat, po
Description: AUC in Lewis rat model of SCW-induced joint inflammation at anti-inflammatory ED50 administered via oral gavage once daily for 8 days measured 24 hrs post last dose on day 8 by LC/MS/MS analysis

in vitro [7] = settings: human, plasma
Description: Fraction unbound in human plasma at 10 uM

in vitro [8] = settings: rat, plasma
Description: Fraction unbound in rat plasma at 10 uM

[9] = Intrinsic clearance in rat hepatocytes assessed per million cells; format: ADME, cell-based, Hepatocyte; settings: read-out: CLH

clearance (in vivo [1]) [mL/min/kg]	Vd (in vivo [2]) [L/kg]	half-life (in vivo [3]) [h]	AUC(0-inf) (in vivo [4]) [µM·h]	bioavailability (in vivo [5]) [%]	AUC (in vivo [6]) [µM·h]	fraction unbound at 10 µM (in vitro [7])	fraction unbound at 10 µM (in vitro [8])	hepatocyte CLint [9] [µL/min/1e6 cells]	SMILES
19	14	11	7.1	53	0.08	0.0001	0.00011		C[C@H](NC(=O)C(F)(F)F)[C@H](Oc1ccc2c(cnn2-c2ccc(F)cc2)c1)c1ccccc1
28	15		5.9	66	0.035	0.0015	0.0063		COc1ccc([C@@H](Oc2ccc3c(cnn3-c3ccc(F)cc3)c2)[C@H](C)NC(=O)C2CC2)cn1
54	0.63	0.27	0.35		0.59	> 0.41	0.31	27	C[C@]12C=CC(=O)C=C1CC[C@@H]1[C@@H]2[C@@H](O)C[C@@]2(C)[C@H]1CC[C@]2(O)C(=O)CO [PREDNISOLONE]
